# Test results from paper PMC10578352, “Identification of a Protein Arginine Methyltransferase 7 (PRMT7)/Protein Arginine Methyltransferase 9 (PRMT9) Inhibitor” (Journal of Medicinal Chemistry, 2023).
# “Also recorded” adds a separate entry of the source.
# System: SET-domain-containing enzymes
# Test: Selectivity against the panel of SET-domain-containing KMTs
# Type: biochemical, human
# Conditions: highest tested concentration 100 μM
# Experimental: . […] After incubation for 60 min at 30 °C, the reaction mixture was delivered to filter paper for detection (as assessed by scintillation). […] Data were analyzed using Excel and GraphPad Prism 6.0 software (GraphPad Software Inc., San Diego, CA). Values obtained for each compound are mean ± SD determined for two separate experiments.
smiles,measurement,value
"COC(=O)c1cc(O)c2cc(NC(=O)NCCCNC(=N)NC[C@H]3O[C@@H](n4cnc5c(N)ncnc54)[C@H](O)[C@@H]3O)cc(C(F)(F)F)c2c1 [1j, Methyl 6-(3-(3-(3-(((2R,3S,4R,5R)-5-(6-Amino-9H-purin-9-yl)-3,4-dihydroxytetrahydrofuran-2-yl)methyl)guanidino)propyl)ureido)-4-hydroxy-8-(trifluoromethyl)-2-naphthoate]",inhibition of SET-domain-containing enzymes (in words),none of the SET-domain-containing enzymes was inhibited; also recorded: not inhibited
